Earlier results as cited in article PMC3853718 (Journal of Translational Medicine, 2013).
Read-outs that look alike come from different tables or passages of the source.

Columns and labels:
[1] = system: solid tumor patients; settings: cited from earlier work
[2] = system: patients; settings: cited from earlier work; for toxicity: 1-hour infusion on days 1, 8, 15 in a 4-week cycle
[3] = system: mouse xenograft model; settings: cited from earlier work
[4] = system: nude mice; settings: once-daily administration for 7 days in nude mice; cited from earlier work
[5] = system: healthy volunteers; set-up: method as in PMID 17115157; settings: single dose of 160 mg; cited from earlier work

Question: Which results are given for `CC[C@H](CO)Nc1nc(NCc2ccccc2)c2ncn(C(C)C)c2n1` [seliciclib]?
Answer: objective responses ([1]; patient with hepatocellular carcinoma among 56 patients): one PR; objective responses ([1]; separate trial): No responses; Dose-limiting toxicities ([2]; orally twice daily for 7 days of a 21-day schedule): hypokalemia, hyponatremia, elevated gamma-glutamyl transferase, hyperglycemia, and vasculitic rash

Question: With `O=C(NC1CCNCC1)c1[nH]ncc1NC(=O)c1c(Cl)cccc1Cl` [AT7519] as the compound, how does the objective responses ([1]; patient with metastatic NSCLC) read?
Answer: The objective responses was “one PR”.

Question: Which results are given for `CN1CC[C@H](c2c(O)cc(O)c3c(=O)cc(-c4ccccc4Cl)oc23)[C@H](O)C1` [flavopiridol]?
Answer: minimum effective dose, defined as >50% tumor growth inhibition [3]: 10 mg/kg; objective responses ([1]; 55 patients, 1-hour daily infusion for 5 days, 3 days, or 1 day in a 21-day cycle): No objective responses; objective responses ([1]; 72-hour continuous infusion every 2 weeks, study of 76 patients, patient with renal cancer): one PR; objective responses ([1]; 72-hour continuous infusion every 2 weeks, trial of 38 patients, patient with gastric cancer): one CR; maximum tolerated dose, defined as the dose associated with 20% weight loss [4]: < 10 mg/kg; dose-limiting toxicity ([2]; 72-hour continuous infusion trials): dose-limiting diarrhea; dose-limiting toxicity ([2]; daily 1-hour infusion schedule): dose-limiting neutropenia

Question: Which objective responses ([1]; first-in-human study in solid tumor patients) does the source give for `CC(C)CC(=O)Nc1[nH]nc2c1CN(C(=O)C1CCN(C)CC1)C2(C)C` [PHA793887] here?
Answer: Its objective responses is “did not show any objective responses”.

Question: And the toxicity ([2]; dose level of 66 mg/m^2, one patient)?
Answer: The toxicity was “grade 4 hepatic failure”.

Question: And the toxicity ([2]; third dose level of 44 mg/m^2, one patient)?
Answer: Its toxicity is “fatal hepatorenal failure”.

Question: What does the source list for `CC(=O)c1c(C)c2cnc(Nc3ccc(N4CCNCC4)cn3)nc2n(C2CCCC2)c1=O` [PD0332991]?
Answer: objective responses ([1]; patient with testicular cancer among 33 patients): one PR; DLTs [2]: neutropenia

Question: What does the source list for `Cc1ncc(-c2ccnc(Nc3ccc(S(C)(=O)=O)cc3)n2)n1C(C)C` [AZD5438]?
Answer: objective responses ([1]; 3 phase 1 trials): No responses; DLT [5]: nausea and vomiting; tolerability ([2]; 40 mg four times a day, continuous daily dosing schedules, advanced solid tumors): not tolerated
